Source: PubChem BioAssay (NCI)
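All cell lines were grown in 96-well plates and treated with compound for 48 hours. GI50: concentration for 50% inhibition of growth. TGI marks complete inhibition of growth.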

Key:
Test in all cases: growth of human tumour cells (NCI), 48 h
A498 renal = test system: A498 renal
HS 578T breast = test system: HS 578T breast
SR leukemia = test system: SR leukemia
CAKI-1 renal = test system: CAKI-1 renal
HOP-92 NSCLC = test system: HOP-92 NSCLC
SK-MEL-2 melanoma = test system: SK-MEL-2 melanoma
SNB-75 CNS = test system: SNB-75 CNS
NCI/ADR-RES ovarian = test system: NCI/ADR-RES ovarian
MALME-3M melanoma = test system: MALME-3M melanoma
SF-295 CNS = test system: SF-295 CNS
RXF 393 renal = test system: RXF 393 renal
HCT-15 colon = test system: HCT-15 colon
SK-MEL-28 melanoma = test system: SK-MEL-28 melanoma
M14 melanoma = test system: M14 melanoma
SF-268 CNS = test system: SF-268 CNS
NCI-H226 lung = test system: NCI-H226 lung
OVCAR-3 ovarian = test system: OVCAR-3 ovarian
OVCAR-4 ovarian = test system: OVCAR-4 ovarian
COLO 205 colon = test system: COLO 205 colon
SK-OV-3 ovarian = test system: SK-OV-3 ovarian
SW-620 colon = test system: SW-620 colon
OVCAR-5 ovarian = test system: OVCAR-5 ovarian
SNB-19 CNS = test system: SNB-19 CNS
SK-MEL-5 melanoma = test system: SK-MEL-5 melanoma
T-47D breast = test system: T-47D breast
TK-10 renal = test system: TK-10 renal
CCRF-CEM leukemia = test system: CCRF-CEM leukemia
A549 NSCLC = test system: A549 NSCLC
NCI-H460 lung = test system: NCI-H460 lung
DU-145 prostate = test system: DU-145 prostate
NCI-H522 lung = test system: NCI-H522 lung
HL-60(TB) leukemia = test system: HL-60(TB) leukemia
U251 CNS = test system: U251 CNS
ACHN renal = test system: ACHN renal
OVCAR-8 ovarian = test system: OVCAR-8 ovarian
PC-3 prostate = test system: PC-3 prostate
786-0 renal = test system: 786-0 renal
HOP-62 NSCLC = test system: HOP-62 NSCLC
UACC-257 melanoma = test system: UACC-257 melanoma
HCC-2998 colon = test system: HCC-2998 colon
MCF7 breast = test system: MCF7 breast
KM12 colon = test system: KM12 colon
MDA-MB-435 = test system: MDA-MB-435
IGROV1 ovarian = test system: IGROV1 ovarian
NCI-H23 lung = test system: NCI-H23 lung
SF-539 CNS = test system: SF-539 CNS
HCT-116 colon = test system: HCT-116 colon
LOX IMVI melanoma = test system: LOX IMVI melanoma
MDA-MB-231 breast = test system: MDA-MB-231 breast
UO-31 renal = test system: UO-31 renal
UACC-62 melanoma = test system: UACC-62 melanoma
K-562 leukemia = test system: K-562 leukemia
MOLT-4 leukemia = test system: MOLT-4 leukemia
RPMI-8226 leukemia = test system: RPMI-8226 leukemia
SN12C renal = test system: SN12C renal
HT29 colon = test system: HT29 colon
BT-549 breast = test system: BT-549 breast

CCN(Cc1cc(F)ccc1F)c1ccc(CO)c(Cl)c1
GI50 (A498 renal): 29.8 nM | TGI (A498 renal): 145 nM | GI50 (HS 578T breast): 16.2 µM | TGI (HS 578T breast): 47.4 µM | GI50 (SR leukemia): 16.1 µM | TGI (SR leukemia): 44.3 µM | GI50 (CAKI-1 renal): 416 nM | TGI (CAKI-1 renal): 5.1 µM | GI50 (HOP-92 NSCLC): 292 nM | TGI (HOP-92 NSCLC): 6.21 µM | GI50 (SK-MEL-2 melanoma): 2720 nM | TGI (SK-MEL-2 melanoma): 19.5 µM | GI50 (SNB-75 CNS): 10.4 µM | TGI (SNB-75 CNS): 35.6 µM | GI50 (NCI/ADR-RES ovarian): 13.6 µM | TGI (NCI/ADR-RES ovarian): 39.9 µM | GI50 (MALME-3M melanoma): 13.3 µM | TGI (MALME-3M melanoma): 27.2 µM | GI50 (SF-295 CNS): 283 nM | TGI (SF-295 CNS): 13.2 µM | GI50 (RXF 393 renal): 4.16 µM | TGI (RXF 393 renal): 17.3 µM | GI50 (HCT-15 colon): 12.8 µM | TGI (HCT-15 colon): 32.3 µM | GI50 (SK-MEL-28 melanoma): 13.8 µM | TGI (SK-MEL-28 melanoma): 27.5 µM | GI50 (M14 melanoma): 15.5 µM | TGI (M14 melanoma): 32.5 µM | GI50 (SF-268 CNS): 17.3 µM | TGI (SF-268 CNS): 40.6 µM | GI50 (NCI-H226 lung): 48.4 nM | TGI (NCI-H226 lung): 178 nM | GI50 (OVCAR-3 ovarian): 238 nM | TGI (OVCAR-3 ovarian): 861 nM | GI50 (OVCAR-4 ovarian): 129 nM | TGI (OVCAR-4 ovarian): 1150 nM | GI50 (COLO 205 colon): 2170 nM | TGI (COLO 205 colon): 6.72 µM | GI50 (SK-OV-3 ovarian): 8.94 µM | TGI (SK-OV-3 ovarian): 29.1 µM | GI50 (SW-620 colon): 554 nM | TGI (SW-620 colon): 20.5 µM | GI50 (OVCAR-5 ovarian): 50.2 nM | TGI (OVCAR-5 ovarian): 228 nM | GI50 (SNB-19 CNS): 20.2 µM | TGI (SNB-19 CNS): 80.3 µM | GI50 (SK-MEL-5 melanoma): 10.8 µM | TGI (SK-MEL-5 melanoma): 22.9 µM | GI50 (T-47D breast): 116 nM | TGI (T-47D breast): 1900 nM | GI50 (TK-10 renal): 33.2 nM | TGI (TK-10 renal): 199 nM | GI50 (CCRF-CEM leukemia): 22.5 µM | TGI (CCRF-CEM leukemia): 91.5 µM | GI50 (A549 NSCLC): 1540 nM | TGI (A549 NSCLC): 21.6 µM | GI50 (NCI-H460 lung): 177 nM | TGI (NCI-H460 lung): 10.8 µM | GI50 (DU-145 prostate): 15.5 µM | TGI (DU-145 prostate): 36.7 µM | GI50 (NCI-H522 lung): 12.2 µM | TGI (NCI-H522 lung): 29 µM | GI50 (HL-60(TB) leukemia): 5.62 µM | TGI (HL-60(TB) leukemia): 34.7 µM | GI50 (U251 CNS): 788 nM | TGI (U251 CNS): 17.1 µM | GI50 (ACHN renal): 14.3 µM | TGI (ACHN renal): 29.6 µM | GI50 (OVCAR-8 ovarian): 13 µM | TGI (OVCAR-8 ovarian): 36.2 µM | GI50 (PC-3 prostate): 13.4 µM | TGI (PC-3 prostate): 32.4 µM | GI50 (786-0 renal): 11.8 µM | TGI (786-0 renal): 26.9 µM | GI50 (HOP-62 NSCLC): 1350 nM | TGI (HOP-62 NSCLC): 20.5 µM | GI50 (UACC-257 melanoma): 90.4 nM | TGI (UACC-257 melanoma): 308 nM | GI50 (HCC-2998 colon): 6.37 µM | TGI (HCC-2998 colon): 21.7 µM | GI50 (MCF7 breast): 181 nM | TGI (MCF7 breast): 12.7 µM | GI50 (KM12 colon): 14.5 µM | TGI (KM12 colon): 30.8 µM | GI50 (MDA-MB-435): 12.8 µM | TGI (MDA-MB-435): 30 µM | GI50 (IGROV1 ovarian): 52.7 nM | TGI (IGROV1 ovarian): 279 nM | GI50 (NCI-H23 lung): 11.4 µM | TGI (NCI-H23 lung): 33.1 µM | GI50 (SF-539 CNS): 15.2 µM | TGI (SF-539 CNS): 30.4 µM | GI50 (HCT-116 colon): 55.3 nM | TGI (HCT-116 colon): 11.7 µM | GI50 (LOX IMVI melanoma): 14.6 µM | TGI (LOX IMVI melanoma): 29.2 µM | GI50 (MDA-MB-231 breast): 13.6 µM | TGI (MDA-MB-231 breast): 29.1 µM | GI50 (UO-31 renal): 2020 nM | TGI (UO-31 renal): 23.4 µM | GI50 (UACC-62 melanoma): 87.7 nM | TGI (UACC-62 melanoma): 602 nM | GI50 (K-562 leukemia): 617 nM | TGI (K-562 leukemia): 20.9 µM | GI50 (MOLT-4 leukemia): 18.1 µM | TGI (MOLT-4 leukemia): 53.8 µM | GI50 (RPMI-8226 leukemia): 2240 nM | TGI (RPMI-8226 leukemia): 30.3 µM | GI50 (SN12C renal): 11.8 µM | TGI (SN12C renal): 25.6 µM | GI50 (HT29 colon): 4.1 µM | TGI (HT29 colon): 17.7 µM | GI50 (BT-549 breast): 15.4 µM | TGI (BT-549 breast): 30.8 µM
